The text below walks through data of patent publication US20260258003A1, “SLACK-ACTIVATING COMPOUNDS AND THEIR MEDICAL USE” (Johann Wolfgang Goethe-Universität Frankfurt am Main, priority 2023, published 2026).

Data set [1] relates to heart rate and breath rate of mice. In words: Pulse oximetry on conscious, freely moving mice. Format: in vivo. Conditions: 10 mg/kg i.p., observation period of 30 min. The procedure: Finally, potential side effects of Compound 6 were assessed by measuring cardiovascular functions by pulse oximetry.
Data set [2] deals with T1, short form of dopamine receptor D2 (D2S) (Homo sapiens, UniProt P14416).
T1 construct: Eurofins SafetyScreen44
T1 sequence (P14416 1-414 isoform P14416-2): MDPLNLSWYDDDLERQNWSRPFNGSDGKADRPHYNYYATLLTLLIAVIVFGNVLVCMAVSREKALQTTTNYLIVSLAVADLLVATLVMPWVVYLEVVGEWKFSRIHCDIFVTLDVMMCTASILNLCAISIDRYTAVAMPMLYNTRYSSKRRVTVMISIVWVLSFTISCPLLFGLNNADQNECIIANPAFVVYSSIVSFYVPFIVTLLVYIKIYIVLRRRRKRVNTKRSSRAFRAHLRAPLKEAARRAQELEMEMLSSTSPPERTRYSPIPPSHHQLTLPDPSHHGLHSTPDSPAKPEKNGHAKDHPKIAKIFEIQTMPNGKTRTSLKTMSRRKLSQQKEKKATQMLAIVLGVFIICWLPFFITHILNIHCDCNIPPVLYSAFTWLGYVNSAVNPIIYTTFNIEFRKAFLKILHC
As to the kind of experiment: SafetyScreen44 binding. Conditions: 10 μM; substantial = higher than 50%. On the procedure:
(§1) Compound enzyme inhibition effect was calculated as a % inhibition of control enzyme activity. […] Measurements were performed in duplicate.

In the next data set the test system is IB4-binding DRG neurons. As to the kind of experiment: Whole-cell current-clamp recordings on IB4-binding DRG neurons. Conditions: 50 μM. Format: cell-based, mice. On the procedure: A DRG neuron primary cell culture was prepared and stimulated with an inflammatory soup overnight to induce hyperexcitability. In brief, naïve C57BL/6N mice (age 4-8 weeks) were killed by CO2 inhalation and lumbar (L1-L5) DRGs were transferred to hanks' balanced salt solution (Gibco, Thermo Fisher Scientific). After incubation with 500 U/mL collagenase IV and 2.5 U/ml dispase II (both from Sigma Aldrich) for 60 min, including carefully shaking every 20 min, DRGs were washed and gently triturated twice with a fire-polished Pasteur pipette in neurobasal medium (Gibco, Thermo Fisher Scientific) including 10% FBS and 0.5 mM GlutMax (Gibco, Thermo Fisher Scientific). Dissociated DRGs were seeded onto poly-D-lysine-coated (100 μg/mL) coverslips and cultured in neurobasal medium supplemented with 2% B27 (Gibco, Thermo Fisher Scientific), 1% penicillin/streptomycin and 0.5 mM GlutMax in 5% CO2 at 37° C.
In order to simulate a pathological state, DRG neuronal cultures were incubated with an inflammatory soup (histamine: 10 μM, PGE2: 10 μM, serotonin: 10 μM, bradykinin: 10 μM)^33 overnight and performed recordings on cells that bind isolectin B4, a marker of nonpeptidergic C-fiber neurons including the itch-sensitive neuronal populations (NP1-NP3)^4 in mice. Before recording, DRG neurons were preincubated with 10 μg/mL FITC-conjugated IB4 (Sigma-Aldrich) for 5-10 min to select for Slack-expressing neurons.
Whole-cell current clamp recordings were obtained using an EPC 9 amplifier combined with Patchmaster software (HEKA Electronics, Lambrecht/Pfalz, Germany). General settings, pipette and extracellular solutions were used as described above. Evoked action potentials (AP) were elicited by 10 ms current injections starting at 0 pA in 20 pA increments to determine electrophysiological parameters. Action potential (AP) firing was induced by depolarizing current pulses (200-950 pA at 150 pA intervals, 1000 ms duration). […] Number of APs before and after compound application were counted at the same current injection step.

In data set [3] the test system is SLIGRL-induced scratching behavior of mice. As to the kind of experiment: SLIGRL-induced acute itch model. It counts as in vivo. The conditions noted are these: 10 mg/kg i.p. On the procedure:
Further studies were conducted to assess the in vivo efficacy of Compound 6 and Compound 10 in mice. In detail, experiments were performed in 8 to 16 weeks old C57BL/6N mice (Charles River, Sulzfeld, Germany) and animals with a genetic deletion of Slack (Slack^−/− mice^27) of either sex. Animals were housed on a 12 h light/dark cycle with access to food and water ad libitum. […]
Acute itch behavior of the mice was monitored using a histamine-based, chloroquine-based and SLIGRL-based acute itch behavior model. […] Numbers of scratching bouts directed to the nape of the neck were assessed over 30 min by videotaping.
Antipruritic efficacy of Compound 6 in histamine-independent itch evoked by SLIGRL injection: The chloroquine-induced scratching in mice is driven by activation of MrgprA3 in the NP2 population of sensory neurons^4,29. To further explore the antipruritic efficacy of Compound 6 in histamine-independent itch, the inventors assessed the behavioral response after s.c. injection of the peptide Ser-Leu-Ile-Gly-Arg-Leu (SLIGRL) that evokes scratching by activation of MrgprC11 (ref^30), which is expressed in the NP2 and NP3 population^4. […]

The subject of data set [4] is DNFB-induced persistent itch behavior of mice. In words: DNFB model of persistent itch (allergic contact dermatitis). It counts as in vivo. The conditions noted are these: i.p. after the second DNFB exposure, vs vehicle. On the procedure:
Furthermore, the effect of Compound 6 in chronic itch was examined in a model of allergic contact dermatitis^31. In brief, the fur on the dorsolateral aspect of the neck was shaved under brief isoflurane anesthesia. Three to four days thereafter, the shaved skin area was painted with 100 μL of 0.15% 2,4-dinitrofluorobenzene (DNFB) in acetone/olive oil (3:1). After 10-11 days, the skin was shaved again and the DNFB solution was painted 3-4 days thereafter (i.e., two painting sessions 14 days apart). Ninety minutes after the second painting, mice were habituated for 15 min in separate plexiglass cylinders (30 cm diameter).
Compounds or vehicle (10% 2-hydroxypropyl-β-cyclodextrine in 0.9% saline) were i.p. administered, and 15 min thereafter spontaneous scratching was recorded over 30 min by videotaping (FIG. 10A).

In data set [5] the test system is histamine-induced scratching of mice. As to the kind of experiment: Histamine-induced acute itch model. It counts as in vivo. Conditions: i.p. On the procedure: Further studies were conducted to assess the in vivo efficacy of Compound 6 and Compound 10 in mice. In detail, experiments were performed in 8 to 16 weeks old C57BL/6N mice (Charles River, Sulzfeld, Germany) and animals with a genetic deletion of Slack (Slack^−/− mice^27) of either sex. Animals were housed on a 12 h light/dark cycle with access to food and water ad libitum. All experiments adhered to the guidelines of the International Association for the Study of Pain and to the ARRIVE (Animal Research: Reporting on In Vivo Experiments) guidelines, and were approved by and conducted in accordance with the regulations of the local Animal Welfare authorities (Regierungspräsidium Darmstadt, Germany). All behavioral studies were conducted during the light cycle of the day at room temperature (20-24° C.) by an observer blinded for the treatment of the animals and/or their genotype.
Acute itch behavior of the mice was monitored using a histamine-based, chloroquine-based and SLIGRL-based acute itch behavior model. In these models, three to four days before the experiment day, the fur on the dorsolateral aspect of the neck was shaved under brief isoflurane anesthesia. On the testing day, mice were habituated for 30 min in separate plexiglass cylinders (30 cm diameter). […] Numbers of scratching bouts directed to the nape of the neck were assessed over 30 min by videotaping.

For data set [6], the target named is T2, cannabinoid receptor 1 (CB1) (Homo sapiens, UniProt P21554).
T2 construct: Eurofins SafetyScreen44
T2 sequence (P21554 whole entry): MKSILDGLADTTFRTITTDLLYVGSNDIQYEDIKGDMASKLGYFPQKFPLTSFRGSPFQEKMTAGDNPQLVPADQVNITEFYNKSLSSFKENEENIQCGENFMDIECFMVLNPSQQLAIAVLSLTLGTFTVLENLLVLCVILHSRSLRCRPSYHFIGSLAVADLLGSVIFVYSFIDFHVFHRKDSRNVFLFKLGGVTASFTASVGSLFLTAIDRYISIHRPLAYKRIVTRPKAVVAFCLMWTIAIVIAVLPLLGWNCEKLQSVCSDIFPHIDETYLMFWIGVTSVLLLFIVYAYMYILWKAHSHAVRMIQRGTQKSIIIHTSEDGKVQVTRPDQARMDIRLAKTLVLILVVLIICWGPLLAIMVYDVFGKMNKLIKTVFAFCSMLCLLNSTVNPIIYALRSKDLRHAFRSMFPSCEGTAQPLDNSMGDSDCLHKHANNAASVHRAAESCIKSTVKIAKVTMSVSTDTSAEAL
In words: SafetyScreen44 binding. The conditions noted are these: 10 μM; substantial = higher than 50%. The procedure: as §1

For the next data set, the system named is Na+ channel. As to the kind of experiment: SafetyScreen44 binding. Set-up: species or system rat. The conditions noted are these: 10 μM; substantial = higher than 50%.
[7] abbreviates: injection of small currents (0-220 pA).

`O=C(O)COCCN1CCN(C2=Nc3ccccc3Oc3ccc(Cl)cc32)CC1` [Compound 6, 2-(2-(4-(2-Chlorodibenzo[b,f][1,4]oxazepin-11-yl)piperazin-1-yl)ethoxy) acetic acid]: in data set [1], the breath rate result is listed as “did neither affect” and the heart rate entry is “did neither affect”. In addition, the “binding inhibition, D2S” value in data set [2] is “substantial binding”. Moreover, in the data set with IB4-binding DRG neurons (current injections 200-950 pA, inflammatory soup overnight), the “number of AP fired” value was “profound decrease”. In addition, in the data set with IB4-binding DRG neurons (setting [7]), the AP amplitude entry is recorded as “significantly lower” and the rheobase result is on record as “significantly increased”. For the same compound, the SLIGRL-induced scratching behavior result in data set [3] was “significantly inhibited”. For the same compound, in data set [4], the “number of head shakes, DNFB model” value was “significantly inhibited” and the “number of scratching bouts, DNFB model” value is reported as “significantly inhibited”. The “scratching evoked by s.c. histamine” value in data set [5] is listed as “not affected”.

In the case of `O=c1nc(CN2CCN(C3=Nc4ccccc4Oc4ccc(Cl)cc43)CC2)[nH][nH]1` [Compound 10, 5-((4-(2-Chlorodibenzo[b,f][1,4]oxazepin-11-yl)piperazin-1-yl)methyl)-1,2-dihydro-3H-1,2,4-triazol-3-one], the “binding inhibition, CB1” value in data set [6] is given as “substantial binding inhibition”.

In the case of `CN1CCN(C2=Nc3ccccc3Oc3ccc(Cl)cc32)CC1` [Loxapine, 2-chloro-11-(4-methylpiperazin-1-yl)dibenzo[b,f][1,4]oxazepine, reference compound], the “binding inhibition, Na+ channel” value in the data set with Na+ channel is recorded as “higher than 50%”.
